The record followed here is PubChem BioAssay AID238 (DTP/NCI, 2004).

This assay relates to CAF1 mice, leiomyosarcoma No.2 ip, survival T/C%. In words: NCI In Vivo Anticancer Drug Screen. Data for tumor model Leiomyosarcoma (No. 2) (intraperitoneal) in CAF1 mice. Particulars: endpoint: mean survival time, higher = longer survival. As to the method: The antitumor activity of compounds was measured in mice bearing transplantable tumors. Survival or tumor size were measured and the results are expressed as the measurement made in the treated group (T) divided by the measurement made in the vehicle treated control group (C). The tumor model used in this assay is Leiomyosarcoma (No. 2) (intraperitoneal) in CAF1 mice

[1] abbreviates: dose: 0.5 mg/kg/injection, schedule: Q01DX010 (ip), vehicle: saline.
Setting [2] is: dose: 1.0 mg/kg/injection, schedule: Q01DX010 (ip), vehicle: saline.
Setting [3] is: dose: 2.0 mg/kg/injection, schedule: Q01DX010 (ip), vehicle: saline.
Where [4] appears, read: dose: 4.0 mg/kg/injection, schedule: Q01DX010 (ip), vehicle: saline.
Where [5] appears, read: dose: 8.0 mg/kg/injection, schedule: Q01DX010 (ip), vehicle: saline.
[6] abbreviates: dose: 25.0 mg/kg/injection, schedule: Q01DX010 (ip), vehicle: saline.
The mark [7] stands for this setting: dose: 50.0 mg/kg/injection, schedule: Q01DX010 (ip), vehicle: saline.
Where [8] appears, read: dose: 100.0 mg/kg/injection, schedule: Q01DX010 (ip), vehicle: saline.
The mark [9] stands for this setting: dose: 200.0 mg/kg/injection, schedule: Q01DX010 (ip), vehicle: saline.
Where [10] appears, read: dose: 400.0 mg/kg/injection, schedule: Q01DX010 (ip), vehicle: saline.
[11] abbreviates: dose: 0.25 mg/kg/injection, schedule: Q01DX010 (ip), vehicle: saline.
[12] abbreviates: dose: 12.5 mg/kg/injection, schedule: Q01DX010 (sc), vehicle: steriod suspending solution.
Setting [13] is: dose: 25.0 mg/kg/injection, schedule: Q01DX010 (sc), vehicle: steriod suspending solution.
Setting [14] is: dose: 50.0 mg/kg/injection, schedule: Q01DX010 (sc), vehicle: steriod suspending solution.
Setting [15] is: dose: 10.0 mg/kg/injection, schedule: Q01DX010 (ip), vehicle: saline.
Where [16] appears, read: dose: 20.0 mg/kg/injection, schedule: Q01DX010 (ip), vehicle: saline.
[17] abbreviates: dose: 40.0 mg/kg/injection, schedule: Q01DX010 (ip), vehicle: saline.
[18] abbreviates: dose: 12.5 mg/kg/injection, schedule: Q01DX010 (ip), vehicle: saline.
The mark [19] stands for this setting: dose: 6.0 mg/kg/injection, schedule: Q01DX010 (ip), vehicle: saline.
Setting [20] is: dose: 5.0 mg/kg/injection, schedule: Q01DX010 (ip), vehicle: saline.
Where [21] appears, read: dose: 1.25 mg/kg/injection, schedule: Q01DX010 (ip), vehicle: saline.
Setting [22] is: dose: 2.5 mg/kg/injection, schedule: Q01DX010 (ip), vehicle: saline.
The mark [23] stands for this setting: dose: 6.25 mg/kg/injection, schedule: Q01DX010 (ip), vehicle: saline.

Structures are written as SMILES. Values joined by “and” are separate entries in the source; they are usually repeats but may differ in a detail not shown here. Equal values may be shown once. Toxic doses and inconclusive results are not listed.

In the case of `Nc1nc(F)nc2c1ncn2C1OC(CO)C(O)C1O` (stereo unspecified), the T/C by setting is: under setting [1], 104 % of control; under setting [2], 104 % of control and 113 % of control; under setting [3], 100 % of control and 109 % of control; under setting [4], 113 % of control and 118 % of control; under setting [5], 86 % of control.
As for `C=C1C[C@H]2[C@@H]3C=C(C)C4=CC(=O)CC[C@]4(C)[C@H]3CC[C@]2(C)[C@@]1(OC(C)=O)C(C)=O`, the T/C was 113 % of control (dose: 62.5 mg/kg/injection, schedule: Q01DX010 (sc), vehicle: steriod suspending solution); 102 % of control (dose: 125.0 mg/kg/injection, schedule: Q01DX010 (sc), vehicle: steriod suspending solution); 89 % of control (dose: 250.0 mg/kg/injection, schedule: Q01DX010 (sc), vehicle: steriod suspending solution); 94 % of control (dose: 500.0 mg/kg/injection, schedule: Q01DX010 (sc), vehicle: steriod suspending solution).
Take `CN(C)/N=N/c1nc[nH]c1C(N)=O`: the T/C under setting [6] was 109 % of control; the T/C under setting [7] is 109 % of control and 113 % of control; the T/C under setting [8] is 118 % of control; the T/C under setting [9] was 163 % of control; the T/C under setting [10] was 86 % of control.
With `CN(C)c1nc(N(C)C)nc(N(C)C)n1`, the T/C reads like this: (dose: 18.8 mg/kg/injection, schedule: Q01DX010 (ip), vehicle: saline) 100 % of control and 108 % of control; (dose: 37.5 mg/kg/injection, schedule: Q01DX010 (ip), vehicle: saline) 89 % of control and 112 % of control; (dose: 75.0 mg/kg/injection, schedule: Q01DX010 (ip), vehicle: saline) 96 % of control and 104 % of control; (dose: 150.0 mg/kg/injection, schedule: Q01DX010 (ip), vehicle: saline) 110 % of control.
`CS(=O)(=O)OCC(O)C(O)C(O)C(O)COS(C)(=O)=O` (stereo unspecified): the T/C by setting is: under setting [6], 104 % of control; under setting [7], 109 % of control and 113 % of control; under setting [8], 118 % of control; under setting [9], 118 % of control.
On to `CS(=O)(=O)OCCN(CCOS(C)(=O)=O)c1ccc(N=O)cc1`, for which the T/C was 221 % of control under setting [11], 173 % of control under setting [1] and 113 % of control under setting [2].
As for `Nc1nc(N)c2nc(CNc3ccc(C(=O)NC(CCC(=O)O)C(=O)O)cc3)cnc2n1` (stereo unspecified), the T/C is 103 % of control and 110 % of control (dose: 0.03 mg/kg/injection, schedule: Q01DX010 (ip), vehicle: other); 106 % of control (dose: 0.05 mg/kg/injection, schedule: Q01DX010 (ip), vehicle: other); 106 % of control and 107 % of control (dose: 0.1 mg/kg/injection, schedule: Q01DX010 (ip), vehicle: other); 110 % of control (dose: 0.2 mg/kg/injection, schedule: Q01DX010 (ip), vehicle: other).
Turning to `CC/C(=C(/CC)c1ccc(O)cc1)c1ccc(O)cc1`, the T/C is 91 % of control and 96 % of control under setting [12]; 96 % of control and 100 % of control under setting [13]; 91 % of control and 92 % of control under setting [14]; 91 % of control and 100 % of control (dose: 100.0 mg/kg/injection, schedule: Q01DX010 (sc), vehicle: steriod suspending solution).
For the compound `CSc1ncnc2nc[nH]c12`, the T/C reads like this: under setting [6], 100 % of control and 109 % of control; under setting [7], 104 % of control and 109 % of control; under setting [8], 104 % of control and 113 % of control; under setting [9], 100 % of control.
Take `Cc1cc(N(CCCl)CCCl)ccc1N=Nc1ccccc1C(=O)O`: the T/C under setting [15] is 150 % of control and 183 % of control; the T/C under setting [16] was 175 % of control; the T/C under setting [17] is 104 % of control and 225 % of control.
In the case of `CCN(CC)CCNc1ccc(C)c2sc3ccccc3c(=O)c12`, the T/C was 116 % of control under setting [18]; 100 % of control and 116 % of control under setting [6]; 103 % of control under setting [7]; 154 % of control under setting [8].
`Nc1ncnc2[nH]ncc12`: the T/C by setting is: (dose: 1.5 mg/kg/injection, schedule: Q01DX010 (ip), vehicle: saline) 107 % of control and 112 % of control; (dose: 3.0 mg/kg/injection, schedule: Q01DX010 (ip), vehicle: saline) 103 % of control and 108 % of control; under setting [19], 96 % of control and 100 % of control; (dose: 12.0 mg/kg/injection, schedule: Q01DX010 (ip), vehicle: saline) 88 % of control and 95 % of control.
Consider `CC(CCC(C)OS(C)(=O)=O)OS(C)(=O)=O` (stereo unspecified), for which the T/C runs as follows: under setting [3], 104 % of control; under setting [4], 100 % of control; under setting [5], 103 % of control and 104 % of control; (dose: 16.0 mg/kg/injection, schedule: Q01DX010 (ip), vehicle: saline) 117 % of control.
In the case of `O=C(Nc1ccc(C2=NCCN2)cc1)c1ccc(C(=O)Nc2ccc(C3=NCCN3)cc2)c([N+](=O)[O-])c1`, the T/C is 121 % of control under setting [19] and 113 % of control under setting [5].
As to `O=c1[nH]c(=O)n(C2CC(O)C(CO)O2)cc1F` (stereo unspecified), the T/C runs as follows: under setting [20], 118 % of control; under setting [15], 118 % of control.
With `C=CC(CN1CC1)OC(C)=O` (stereo unspecified), the T/C runs as follows: under setting [3], 104 % of control; under setting [5], 176 % of control.
On to `C#CCN(C)Cc1ccccc1`, for which the T/C runs as follows: under setting [7], 102 % of control; under setting [8], 88 % of control; under setting [9], 91 % of control.
Take `C1CN1c1nc(N2CC2)nc(N2CC2)n1`: the T/C is 117 % of control (dose: 0.13 mg/kg/injection, schedule: Q01DX010 (ip), vehicle: saline); 121 % of control under setting [11]; 196 % of control and 233 % of control under setting [1].
For the compound `C[C@]12C=CC(=O)C=C1CC[C@@H]1[C@@H]2[C@@H](O)C[C@@]2(C)[C@H]1CC[C@]2(O)C(=O)CO`, the T/C reads like this: under setting [12], 86 % of control and 107 % of control; under setting [13], 92 % of control and 93 % of control; under setting [14], 100 % of control and 107 % of control.
Consider `Nc1nc(=S)c2[nH]cnc2[nH]1`, for which the T/C was 300 % of control under setting [21] and 93 % of control under setting [20].
Turning to `O=c1cnn(C2OC(CO)C(O)C2O)c(=O)[nH]1` (stereo unspecified), the T/C runs as follows: under setting [9], 104 % of control and 107 % of control; under setting [10], 104 % of control and 107 % of control; (dose: 800.0 mg/kg/injection, schedule: Q01DX010 (ip), vehicle: saline) 107 % of control and 112 % of control.
In the case of `O=c1[nH]cc(F)c(=O)[nH]1`, the T/C by setting is: under setting [20], 195 % of control; under setting [15], 213 % of control and 227 % of control; under setting [16], 181 % of control and 186 % of control.
`O=c1c(O)cccc2cc(O)c(O)c(O)c12`: the T/C by setting is: under setting [6], 88 % of control; under setting [7], 102 % of control.
`CN(C)c1ccc(/C=C/c2ccnc3ccccc23)cc1`: the T/C was 96 % of control and 112 % of control under setting [20]; 112 % of control under setting [15]; 112 % of control under setting [16]; 100 % of control under setting [17].
For `Oc1cc(CN(CCCl)CCCl)c(O)cc1CN(CCCl)CCCl`, the T/C by setting is: (dose: 0.31 mg/kg/injection, schedule: Q01DX010 (ip), vehicle: saline) 162 % of control; (dose: 0.63 mg/kg/injection, schedule: Q01DX010 (ip), vehicle: saline) 159 % of control; under setting [21], 159 % of control and 175 % of control and 184 % of control; under setting [22], 186 % of control; under setting [20], 118 % of control.
`Nc1nc2n[nH]nc2c(=O)[nH]1`: the T/C reads like this: (dose: 25.0 mg/kg/injection, schedule: Q01DX010 (ip), vehicle: alkali diluted with saline) 188 % of control and 225 % of control; under setting [6], 253 % of control; (dose: 50.0 mg/kg/injection, schedule: Q01DX010 (ip), vehicle: alkali diluted with saline) 180 % of control and 250 % of control; under setting [7], 186 % of control; (dose: 100.0 mg/kg/injection, schedule: Q01DX010 (ip), vehicle: alkali diluted with saline) 190 % of control and 246 % of control; (dose: 200.0 mg/kg/injection, schedule: Q01DX010 (ip), vehicle: alkali diluted with saline) 185 % of control.
As for `CCCNc1ncnc2[nH]ncc12`, the T/C by setting is: under setting [23], 114 % of control; under setting [18], 88 % of control and 90 % of control.
With `O=C(O)CCCc1ccc(N(CCCl)CCCl)cc1`, the T/C runs as follows: under setting [23], 153 % of control and 279 % of control; under setting [18], 203 % of control and 225 % of control.
As to `N=C(N)SCc1c2ccccc2c(CSC(=N)N)c2ccccc12`, the T/C is 172 % of control under setting [22]; 186 % of control and 209 % of control under setting [20]; 177 % of control and 204 % of control under setting [15]; 109 % of control and 209 % of control under setting [16]; 104 % of control under setting [17].
